The test system of experiment [1] is S. pyogenes (ATCC 51339). The experiment is described as follows: Antibacterial susceptibility testing (MIC, broth microdilution or agar dilution), S. pyogenes. It counts as cell-based. As to conditions: Streptococcus pyogenes, ATCC51339; read-out: S. pyogenes (ATCC 51339) minimal inhibitory concentration (MIC). The procedure:
(§1) Compounds of the invention were tested for antimicrobial activity by susceptibility testing in liquid or on solid media. MICs for compounds against each strain were determined by the broth microdilution or agar dilution method according to the guidelines of the Clinical Laboratories and Standards Institute, formerly the National Committee for Clinical Laboratory Standards (Clinical Laboratories and Standards Institute. Methods for Dilution Antimicrobial Susceptibility Tests for Bacteria That Grow Aerobically; Approved Standard—Seventh Edition. Document M7-A7. CLSI, Wayne, Pa., 2006; Clinical Laboratories and Standards Institute. The Gram positive bacterial strains tested include S. aureus (Staphylococcus aureus (Isolate ID ATCC 29213)), E. faecalis (Enterococcus faecalis (Isolate ID ATCC 29212)) and S. pyogenes (Streptococcus pyogenes (Isolate ID ATCC 51339)). The Gram negative bacterial strains tested include H. influenzae (Haemophilus influenzae (Isolate ID ATCC 49247)).

Experiment [2] relates to S. aureus (ATCC 29213). The experiment can be described thus: Antibacterial susceptibility testing (MIC, broth microdilution or agar dilution), S. aureus. It counts as cell-based. Conditions: Staphylococcus aureus, ATCC29213; read-out: S. aureus (ATCC 29213) minimal inhibitory concentration (MIC). The protocol: as §1
In general terms: In broth dilution the organism is exposed to a series of concentrations in liquid medium.

MIC data for 14 compounds are collected here from patent publication US9060515B2, “Heterocyclic urea compounds” (BIOTA EUROPE LTD, priority 2011, dated 2015).

In brackets after ≈: the same amount, converted by molar mass. Bounds are passed on as bounds.

Take `CCNC(=O)Nc1cc(Nc2ccccc2)c(C(=O)Nc2cc(F)cc(F)c2)cn1` [Compound 66, N-(3,5-difluorophenyl)-6-(3-ethylureido)-4-(phenylamino)nicotinamide]: the MIC in experiment [1] is 4 µg/mL (≈ 9.72 µM); in experiment [2], at most 1 µg/mL.
For the compound `CCNC(=O)Nc1cc(Nc2ccccc2)c(C(=O)Nc2ccncc2)cn1` [Compound 42, 6-(3-ethylureido)-4-(phenylamino)-N-(pyridin-4-yl)nicotinamide], the MIC in experiment [1] and in experiment [2] was at most 1 µg/mL each time.
`CCNC(=O)Nc1cc(Nc2ccccc2)c(C(=O)Nc2ccc(C)cc2)cn1` [Compound 46, 6-(3-ethylureido)-4-(phenylamino)-N-p-tolylnicotinamide]: the MIC in experiment [1] was 4 µg/mL (≈ 10.3 µM); in experiment [2], 2 µg/mL (≈ 5.14 µM).
On to `CCNC(=O)Nc1cc(Nc2c(C)noc2C)c(C(=O)Nc2cccnc2)cn1` [Compound 115, 4-(3,5-dimethylisoxazol-4-ylamino)-6-(3-ethylureido)-N-(pyridin-3-yl)nicotinamide], for which the figures for the MIC in experiment [1] and in experiment [2] were 8 µg/mL (≈ 20.2 µM) and 32 µg/mL (≈ 80.9 µM), respectively.
For `CCNC(=O)Nc1cc(Nc2ccccc2)c(C(=O)Nc2cnn(C)c2)cn1` [Compound 65, 6-(3-ethylureido)-N-(1-methyl-1H-pyrazol-4-yl)-4-(phenylamino)nicotinamide], in that order: at most 1 µg/mL and 2 µg/mL (≈ 5.27 µM).
With `CCNC(=O)Nc1cc(Nc2ccccc2OC)c(C(=O)Nc2cccnc2)cn1` [Compound 109, 6-(3-ethylureido)-4-(2-methoxyphenylamino)-N-(pyridin-3-yl)nicotinamide], the MIC in experiment [1] was at most 1 µg/mL; in experiment [2], 2 µg/mL (≈ 4.92 µM).
For `CCNC(=O)Nc1cc(Nc2ccc(C(=O)OC)cc2)c(C(=O)Nc2cccnc2)cn1` [Compound 96, methyl 4-(2-(3-ethylureido)-5-(pyridin-3-ylcarbamoyl)pyridin-4-ylamino)benzoate], in that order: at most 1 µg/mL and at most 1 µg/mL.
For `CCNC(=O)Nc1cc(Nc2ccccc2)c(C(=O)Nc2cncc(C(=O)OC)c2)cn1` [Compound 89, methyl 5-(6-(3-ethylureido)-4-(phenylamino)nicotinamido)nicotinate], in that order: 8 µg/mL (≈ 18.4 µM) and at most 1 µg/mL.
As to `CCNC(=O)Nc1cc(Nc2ccccc2)c(C(=O)Nc2cncc(C)c2)cn1` [Compound 91, 6-(3-ethylureido)-N-(5-methylpyridin-3-yl)-4-(phenylamino)nicotinamide], the MIC in experiment [1] and in experiment [2] was at most 1 µg/mL each time.
`CCNC(=O)Nc1cc(Nc2ccccc2)c(C(=O)Nc2ccc(CCC(=O)N(C)C)cc2)cn1` [Compound 119, N-(4-(3-(dimethylamino)-3-oxopropyl)phenyl)-6-(3-ethylureido)-4-(phenylamino)nicotinamide]: the MIC in experiment [1] and in experiment [2] was at most 1 µg/mL throughout.
For `CCNC(=O)Nc1cc(Nc2ccccc2)c(C(=O)Nc2ccc(C)nc2)cn1` [Compound 81, 6-(3-ethylureido)-N-(6-methylpyridin-3-yl)-4-(phenylamino)nicotinamide], the MIC in experiment [1] and in experiment [2] was at most 1 µg/mL throughout.
As for `CCNC(=O)Nc1cc(Nc2ccccc2)c(C(=O)NCC)cn1` [Compound 8, N-Ethyl-6-(3-ethylureido)-4-(phenylamino)nicotinamide], the figures for the MIC in experiment [1] and in experiment [2] were 16 µg/mL (≈ 48.9 µM) and 32 µg/mL (≈ 97.7 µM), respectively.
The like results for `CCNC(=O)Nc1cc(Nc2ccccc2)c(C(=O)Nc2ccc(C#N)nc2)cn1` [Compound 104, N-(6-cyanopyridin-3-yl)-6-(3-ethylureido)-4-(phenylamino)nicotinamide] were, in that order, at most 1 µg/mL and 2 µg/mL (≈ 4.98 µM).
With `CCNC(=O)Nc1cc(Nc2ccn(C)n2)c(C(=O)Nc2cccnc2)cn1` [Compound 116, 6-(3-ethylureido)-4-(1-methyl-1H-pyrazol-3-ylamino)-N-(pyridin-3-yl)nicotinamide], the MIC in experiment [1] is at most 1 µg/mL; in experiment [2] it was 4 µg/mL (≈ 10.5 µM).
